Assay results published in the NIST ThermoML archive (doi:10.1021/je300920t).
± gives the expanded uncertainty stated by the source.

Assays:
[1] = xn = mol fraction of the nth substance listed; details: Drop volume, x1 = 0.5412
[2] = Drop volume

In the case of NCCO [2-aminoethan-1-ol] + O, the surface tension liquid-gas ([1]; 313.15 K) is reported as 51.5 ± 1.8 mN/m, the surface tension liquid-gas ([1]; 323.15 K) is reported as 50.4 ± 1.8 mN/m and the surface tension liquid-gas ([1]; 333.15 K) is reported as 49.3 ± 1.8 mN/m. It also gave a surface tension liquid-gas ([1]; 343.15 K) of 48.1 ± 1.8 mN/m.
Compound NCCO [2-aminoethan-1-ol] has a surface tension liquid-gas ([2]; 293.15 K) of 48.48 ± 0.47 mN/m, a surface tension liquid-gas ([2]; 303.15 K) of 47.64 ± 0.46 mN/m and a surface tension liquid-gas ([2]; 313.15 K) of 46.88 ± 0.46 mN/m.
